Like-named read-outs stand apart in the source and are kept apart here.
Assays:
Format in all cases: in vivo
Musca domestica = test: Topical application activity against Musca domestica; conditions: read-out: percent of mortality
Description: d. Activity against Musca domestica
This topical application test consisted of placing a microliter of an acetone solution of the test product on the dorsal thorax of Musca domestica after having been put to sleep with ether. The insects were held at 20° C and 50% relative humidity and were fed milk and water.

Drosophila melanogaster = test: Vapor activity against Drosophila melanogaster; conditions: inhaled or nasal, read-out: percentage of mortality
Description: a. Activity against Drosophila melanogaster
This test measures the vapor activity of the compounds and the less than 48 hours old insects were placed in a Petri dish with a 10 cm diameter connected by a tergal screen to a crystallizer of the same diameter in which the test compound in acetone solution is placed. The said solution is evaporated after the insects have been placed and 3 tests with 25 insects were run for each concentration. The results are expressed in Table I as a percentage of mortality after 1, 2, 4 and 6 hours.

Blattella germanica = test: Topical application activity against Blattella germanica; conditions: read-out: percent of mortality
Description: b. Activity against Blattella germanica
This test was a topical application in which adult male Blattella germanica received 2 microliters of an acetone solution of the test products between the second and third pair of paws. After this treatment, the test insects were held in a dim light at 20° C and were fed. The results expressed as percent of mortality in Table II were read 24 and 48 hours and 5 days after the treatment.

Spodoptera littoralis = test: Ingestion test against Spodoptera littoralis caterpillars; conditions: po, read-out: percent of mortality
Description: e. Activity against Spodoptera littoralis
This test was effected with Spodoptera littoralis caterpillars 1 to 1.5 cm long and an average of 10 days old. In this ingestion test, 4 ml of an acetone solution of the test products was placed on lettuce rings with an 8 mm diameter which were placed in closed plastic dishes with a 5 cm diameter. 15 caterpillars were placed in each dish and were held at 20° C and 50% relative humidity and were fed when the insects had eaten the treated lettuce ring.

[1] = system: Ditylenchus Myceliophagus; test: Acaricide activity, Ditylenchus Myceliophagus; conditions: 24 h, read-out: Percent of mortality after 24 hours
Description: In an apparatus containing 10 ml of an aqueous solution of the test product, 0.5 ml of water containing about 2000 acariens of Ditylenchus Myceliophagus were added thereto and the percent of mortality was determined by a binocular magnifying glass after 24 hours.

Musca domestica larvae = test: Contact-ingestion test against Musca domestica larvae; conditions: read-out: percent of mortality
Description: g. Activity against Musca domestica larvae
This contact-ingestion test consisted of placing 2 ml of an acetone solution of different concentrations of the test product on 1 g of bran placed in a watch glass and the solvent was evaporated. The treated bran was placed in a plastic dish and was admixed with 2 ml of milk. 20 3 to 4 day old larvae of Musca domestica were added to the bran and were held at 20° C and 30% relative humidity and 3 tests were conducted for each concentration.

Sitophilus granarius = test: Topical application test against Sitophilus granarius; conditions: read-out: percent mortality
Description: c. Test against Sitophilus granarius
This topical application test comprised preparing the test compounds in acetone solution at concentrations of 5000, 500 and 50 mg of the active compound per liter and 0.2 μl of the solutions were applied to the ventral thorax of 50 Sitophilus granarius for each concentration.

Meloidogynes spec = test: Nematocidal activity against Meloidogynes spec (tomato root galls); conditions: 25 Kg/ha
Description: a. Activity against Meloidogynes spec
A volume of about 3 liters of dirt infested with Meloidogynes spec was placed in a plastic sack. Nematocidal treatments are considered effective to a depth of 30 cm, a volume of 3 liters of dirt corresponding to a surface area of 100 cm^ 2 or 10^-^6 ha (since 100 cm^ 2 × 30 cm = 3000 ml or 3 liters). Each volume of infested dirt received 100 ml of an aqueous suspension containing 0.250 g of the test product (corresponding to 250 Kg/ha) and the controls received only 100 ml of water. The plastic sacks containing the dirt were immediately sealed after the treatment and then agitated to obtain a good distribution of the product. Two weeks after the treatment, the sacks were opened and the dirt was used to plant 3 tomato plants of St. Pierre variety. The plants used were raised in the greenhouse with dirt sterilized with heat to obtain plants free of nematodes. Three plants were used for each test which was run 6 times for each treatment. Two months after planting the tomatoes were removed from the dirt and the efficacy was determined by counting the number of galls observed on the roots. A correlation between the population of Meloidogynes in the pot and the number of galls exists.

## CCOc1nc(OP(=S)(OCC)OCC)c(C#N)s1 [A, 2-ethoxy-4-diethoxythiophosphoryloxy-5-cyano-thiazole]
Musca domestica; 1 H
  mortality at 500 ppm: 91%
  mortality at 2500 ppm: 100%
  mortality at 5000 ppm: 100%
Musca domestica; 24 H
  mortality at 500 ppm: 94%
  mortality at 2500 ppm: 100%
  mortality at 5000 ppm: 100%
Drosophila melanogaster; 1 H
  mortality at 5 ppm: 99%
  mortality at 50 ppm: 100%
  mortality at 500 ppm: 100%
Drosophila melanogaster; 4 H
  mortality at 5 ppm: 100%
  mortality at 50 ppm: 100%
  mortality at 500 ppm: 100%
Drosophila melanogaster; 6 H
  mortality at 5 ppm: 100%
  mortality at 50 ppm: 100%
  mortality at 500 ppm: 100%
Blattella germanica; 24 H
  mortality at 312.5 ppm: 65%
Blattella germanica; 24 H, 625 ppm
  mortality at 625 ppm: 100%
Blattella germanica; 24 H, 1250 ppm
  mortality at 1250 ppm: 100%
Blattella germanica; 48 H
  mortality at 312.5 ppm: 70%
Blattella germanica; 48 H, 625 ppm
  mortality at 625 ppm: 100%
Blattella germanica; 48 H, 1250 ppm
  mortality at 1250 ppm: 100%
Blattella germanica; 120 h
  mortality at 625 ppm: 30%
  mortality at 1250 ppm: 100%
Spodoptera littoralis; 1 H, 62.5 ppm, ingestion
  mortality at 62.5 ppm: 0%
Spodoptera littoralis; 1 H, 125 ppm, ingestion
  mortality at 125 ppm: 0%
Spodoptera littoralis; 1 H, 250 ppm, ingestion
  mortality at 250 ppm: 0%
Spodoptera littoralis; 48 H, 62.5 ppm, ingestion
  mortality at 62.5 ppm: 80%
Spodoptera littoralis; 48 H, 125 ppm, ingestion
  mortality at 125 ppm: 100%
Spodoptera littoralis; 48 H, 250 ppm, ingestion
  mortality at 250 ppm: 100%
Spodoptera littoralis; 24 h
  mortality at 62.5 ppm: 60%
  mortality at 125 ppm: 100%
  mortality at 250 ppm: 90%
[1]; 0.001 g/l
  mortality at 1 µg/mL: 81.8%
[1]; 0.010 g/l
  mortality at 10 µg/mL: 91.6%
[1]; 0.1 g/l
  mortality at 100 µg/mL: 100%
Musca domestica larvae; 48 H
  mortality at 500 ppm: 37%
  mortality at 5000 ppm: 64%
Musca domestica larvae; 192 h, 8 Days
  mortality at 500 ppm: 63%
  mortality at 5000 ppm: 92%
Sitophilus granarius; 4 H
  mortality at 50 ppm: 0%
  mortality at 500 ppm: 100%
  mortality at 5000 ppm: 100%
Sitophilus granarius; 24 H
  mortality at 50 ppm: 0%
  mortality at 500 ppm: 100%
  mortality at 5000 ppm: 100%
Sitophilus granarius; 120 h, 5 Days
  mortality at 50 ppm: 0%
  mortality at 500 ppm: 100%
  mortality at 5000 ppm: 100%

## CCOc1nc(OP(=O)(OC)OC)c(C#N)s1 [Compound D, 2-ethoxy-4-dimethoxyphosphoryloxy-5-cyano-thiazole]
Musca domestica; 24 H
  mortality at 5000 ppm: 64%
Drosophila melanogaster; 2 H
  mortality at 500 ppm: 100%
Drosophila melanogaster; 6 H
  mortality at 500 ppm: 100%
Blattella germanica; 24 H
  mortality at 5000 ppm: 100%
Blattella germanica; 48 H
  mortality at 5000 ppm: 100%
Blattella germanica; 120 h, 5 Days
  mortality at 5000 ppm: 100%
Musca domestica larvae; 192 h, 8 Days
  mortality at 5000 ppm: 90%
Meloidogynes spec
  Relative efficacity in % as compound to controls: 52.8%
Meloidogynes spec; control 44.4
  Number of galls per foot: 31.25
Meloidogynes spec; control 222
  Total number of galls: 125
Sitophilus granarius; 4 H
  mortality at 5000 ppm: 100%
Sitophilus granarius; 24 H
  mortality at 5000 ppm: 100%
Sitophilus granarius; 120 h, 5 Days
  mortality at 5000 ppm: 100%
